What was measured:
C. albicans [1] = assay: C. albicans biofilm inhibition assay (crystal violet); format: cell-based; conditions: for effect of pure ketone on C. albicans biofilms: dose not stated
Protocol: (§1) Biofilm inhibition assay: Biofilm inhibition assays were conducted in 96-well polystyrene microtiter plates (Tarsons Products Pvt. Ltd. India) as previously described. Briefly, bacterial or yeast cells were cultured overnight in LB or PDB and re-inoculated in fresh LB or PDB (1:100 dilution) (with 0.05% glucose) with and without supplementation of postbiotics (5% or 10% v/v) at 37° C. After 24 h of incubation, biofilms were stained with crystal violet (0.1%) for 20 min, washed repeatedly, and the residual biofilm cells (attached to the polystyrene surfaces) were dissolved in 95% ethanol. The planktonic growth was measured at 600 nm, while the biofilms were measured at 575 nm using a Biowave CO8000 cell density meter. For microscopic imaging of biofilms attached to the polystyrene surfaces, the wells were stained with SYTO® 9 dye, and imaged under Nikon fluorescent microscope (Nikon Eclipse Ti2, Japan) using a GFP emission filter.

C. albicans [2] = assay: Yeast-hyphae switching assay; format: cell-based; conditions: liquid RPMI media
Protocol: Yeast-hyphae switching assay: Yeast-hyphae (Y-H) switching assays were conducted in liquid RPMI-1640 medium as previously described. Briefly, overnights cultures of C. albicans (grown in PDB) were diluted to a 1:100 in RPMI-1640 and treated with or without UP/CSP ([…]) or ketones (0.005%-0.1%). The cultures were then incubated at 37° C. with shaking (150 rpm). Following incubation, 5 μL of the cultures were transferred to the microscopic slide and imaged under Nikon fluorescent microscope (Nikon Eclipse Ti2, Japan).

C. albicans [3] = assay: C. elegans infected with C. albicans, treated with 2-undecanone; format: in vivo; conditions: 2-undecanone 0.01%, 7 days; infected untreated 20% survival
Protocol: C. elegans co-infection assays: Wild-type C. elegans were maintained on nematode growth medium (NGM) with E. coli OP50 as the feed, and synchronization was performed as described previously^35. Briefly, C. elegans were collected by aspiration and bleached with 2% sodium hypochlorite and 0.5 N sodium hydroxide to get the eggs. Eggs were transferred to 48-well microliter plates and were incubated for 24 h at 22° C. for hatching. The hatched juveniles were transferred to new E. coli OP50 plates and incubated for 5-7 days to obtain adult nematode. Adults were subsequently used for toxicity, and bacterial or C. albicans colonization assays. For C. albicans infection of C. elegans, the adult nematodes, previously fed on E. coli OP50, were transferred to a C. albicans lawn on NGM agar plate for 4 h. After 4 h, the nematodes were collected in M9 buffer, pipetted into a 96-well, and survival monitored for 7 days. […] The live and dead nematodes were counted under bright-field, and DAPi filter and the nematode survival rates were estimated and plotted. The images of C. elegans were acquired using a Nikon fluorescent microscope (Nikon Eclipse Ti2, Japan).
The present inventors further tested whether 2-undecanone could suppress C. albicans pathogenicity in a C. elegans model by infecting C. elegans with C. albicans.

C. elegans = C. elegans toxicity assay; format: in vivo; conditions: 2-undecanone 0.1%, 7 days
Protocol: C. elegans toxicity assay: C. elegans wild-type strains were maintained on nematode growth medium (NGM) with E. coli OP50 as the feed. […] The control and treatment groups (each consisting of approximately 30 nematodes per well) were suspended in liquid M9 buffer and monitored for 7 days. The live or dead nematodes were counted using the Nikon fluorescent microscope (Nikon Eclipse Ti2, Japan) using a DIC and DAPi (blue LED light) filters and the survival percentage was calculated.

C. albicans [4] = assay: C. albicans growth profile; format: cell-based
Protocol: as §1, with “Briefly, bacterial or yeast cells were cultured overnight in LB or PDB and re-inoculated in fresh LB or PDB (1:100 dilution) (with 0.05% glucose) with and without supplementation of postbiotics (5% or 10% v/v) at 37° C.” left out

[5] = test system: unstressed L. plantarum 3297 cells from conic colonies; assay: Cold-shock colony filtrate assay: consolidated circular bundle formation in unstressed conic colony cells; format: cell-based; conditions: cells pre-incubated with lithium chloride (5M) before CSCF
Protocol: An assay was developed to see if the cold-stressed conic colony (−17° C. for 1 h) extracts could potentiate consolidated bundling in unstressed conic colony cells. Briefly, 1 mL of suspension from harvested cold-stressed (treated) and unstressed (control) conic colonies (approximately 5-6 colonies) were resuspended in PBS, vortexed, and sonicated. The extracts were filtered using a 0.2 μm membrane filter to remove the cells. The filtrate was named cold-shock colony filtrates (CSCF). Simultaneously, 1 mL cells from the unstressed colonies were vortexed, sonicated, and pelleted. To these pelleted unstressed cells, 1 mL of CSCF was added, aspirated, and incubated at 37° C. for 3 h. At the same time, colony filtrates (CF) from the unstressed colony and heat-treated (60° C. for 30 min) CSCF were prepared and tested. Following incubation, the aggregation pattern was scrutinized under Nikon fluorescent microscope (Nikon Eclipse Ti2, Japan). As a negative control, one vial of unstressed cells was incubated with 5M lithium chloride ([…]) for 30 min before adding 1 mL of CSCF. […] abolishes the S-layer protein and stalls the ability of the cells to aggregate to form bundles.

CCCCCC(C)=O [2-heptanone]
effect of pure ketone on C. albicans biofilms (C. albicans [1]): did not show any notable effect | effect of pure ketone on C. albicans hyphae (Y-H transitions) (C. albicans [2]): did not show any notable effect

CCCCCCCC(C)=O [2-nonanone]
effect of pure ketone on C. albicans biofilms (C. albicans [1]): did not show any notable effect | effect of pure ketone on C. albicans hyphae (Y-H transitions) (C. albicans [2]): did not show any notable effect

CCCCCCCCCC(C)=O [2-undecanone]
C. albicans biofilm formation (C. albicans [1]; 0.005%, PDB, polystyrene): successful in preventing the biofilm formation | survivability of C. albicans infected C. elegans (C. albicans [3]): 50% | mortality of C. elegans (C. elegans): did not induce any mortality | C. albicans planktonic growth (C. albicans [4]; 0.005%): without compromising the planktonic growth | C. albicans growth profiles (C. albicans [4]; higher dosage (0.05 or 0.01%), RPMI media): substantial decline in the growth profiles | effect of pure ketone on C. albicans hyphae (Y-H transitions) (C. albicans [2]): effectively controlled Y-H transitions

[Cl-].[Li+] [lithium chloride]
circular bundle formation induced by CSCF [5]: prevented

Reference: patent US20240336889A1, “NOMADIC BACTERIA AND USES THEREOF” (The State of Israel, Ministry of Agriculture & Rural …, priority 2021, published 2024)
